Type in all cases: in vivo
For assay [1], the system named is barnyardgrass (Echinochloa crus-galli). As to the kind of experiment: Test E pre-/postemergence/post directed. The arrangement: key: 0 is no injury; 100 is complete control. The note with it: PREEMERGENCE
The method in brief: (§1)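 Greenhouse pot-grown plants; compound in non-phytotoxic solvent with surfactant applied preemergence to soil within one day of planting, postemergence at two to four leaf stage (three to twenty cm), or post-directed to plant base and soil. Visual injury rated 13 to 21 days after application, 0 (none) to 100 (complete control).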

Assay [2] deals with Russian thistle (Salsola kali). As to the kind of experiment: Test E pre-/postemergence/post directed. To be noted: PREEMERGENCE
The gist of the method:
as §1

For the next assay, the system named is kochia (Kochia scoparia). The assay can be described thus: Test E pre-/postemergence/post directed. On the set-up: key: 0 is no effect; 100 is complete control. The note with it: PREEMERGENCE
The gist of the method: as §1

Assay [3] relates to Italian ryegrass (Lolium multiflorum). As to the kind of experiment: Test D. The arrangement: key: 0 is no effect; 10 is complete control. To be noted: PREEMERGENCE, Rate 62 g/ha.
Assay [4] relates to Russian thistle (Salsola kali). The assay can be described thus: Test D. To be noted: POSTEMERGENCE
The gist of the method: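 Each species is treated with compound formulated in a solvent mixture with surfactant, postemergence treatment being at the 1- to 4-leaf stage. Response is judged visually after approximately 21 to 28 days, relative to untreated controls, from 0 (no effect) to 100 (complete control).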

The test system of assay [5] is downy brome (Bromus tectorum). The assay can be described thus: Test D. To be noted: PREEMERGENCE, Rate 62 g/ha. The arrangement: key: 0 is no effect; 10 is complete control.
Assay [6] concerns field violet (Viola arvensis). The assay can be described thus: Test D. On the set-up: key: 0 is no effect; 100 is complete control. To be noted: POSTEMERGENCE
The method, then: Compounds evaluated in this test were formulated in a non-phytotoxic solvent mixture which included a surfactant and applied to plants that were in the 1- to 4-leaf stage (postemergence application). A mixture of sandy loam soil and greenhouse potting mix in a 60:40 ratio was used for the postemergence test.
Plantings of these crops and weed species were adjusted to produce plants of appropriate size for the postemergence test. All plant species were grown using normal greenhouse practices. Crop and weed species include alfalfa (Medicago sativa), annual bluegrass (Poa annua), blackgrass (Alopecurus myosuroides), black nightshade (Solanum nigra), chickweed (Stellaria media), common poppy (Papaver rhoeas), deadnettle (Lamium amplexicaule), downy brome (Bromus tectorum), field violet (Viola arvensis), galium 2 (Galium aparine), green foxtail (Setaria viridis), Italian ryegrass (Lolium multiflorum), jointed goatgrass (Aegilops cylindrica), kochia (Kochia scoparia), lambsquarters (Chenopodium album), lentil (Lens culinaris), littleseed canarygrass (Phalaris minor), pea (Pisum sativum), potato (Solanum tuberosum), rape (Brassica napus), redroot pigweed (Amaranthus retroflexus), Russian thistle (Salsola kali), scentless chamomile (Matricaria inodora), sorghum (Sorghum vulgare), spring barley (Hordeum vulgare), sugar beet (Beta vulgaris), sunflower (Helianthus annuus), ivyleaf speedwell (Veronica hederaefolia), spring wheat (Triticum aestivum), winter wheat (Triticum aestivum), wild buckwheat (Polygonum convolvulus), wild mustard (Sinapis arvensis), wild oat (Avena fatua), windgrass (Apera spica-venti) and winter barley (Hordeum vulgare).
Treated plants and untreated controls were maintained in a greenhouse for approximately 21 to 28 days, after which all treated plants were compared to untreated controls and visually evaluated. Plant response ratings, summarized in Table D, are based upon a 0 to 100 scale where 0 is no effect and 100 is complete control. A dash response (−) means no test result.

For assay [7], the system named is wild buckwheat (Polygonum convolvulus). The assay can be described thus: Test D. On the set-up: key: 0 is no effect; 10 is complete control. To be noted: PREEMERGENCE, Rate 62 g/ha.
Assay [8] deals with downy brome (Bromus tectorum). The assay can be described thus: Test D. On the set-up: key: 0 is no effect; 100 is complete control. To be noted: PREEMERGENCE
For assay [9], the system named is pitted morningglory (Ipomoea lacunosa). As to the kind of experiment: Test E pre-/postemergence/post directed. On the set-up: key: 0 is no injury; 100 is complete control. The note with it: PREEMERGENCE
The gist of the method: as §1

Assay [10] has as its system large crabgrass (Digitaria sanguinalis). As to the kind of experiment: Test E pre-/postemergence/post directed. The arrangement: key: 0 is no injury; 100 is complete control. The note with it: PREEMERGENCE, Rate 32 g/ha. The gist of the method:
as §1

Assay [11] relates to bermudagrass (Cynodon dactylon). The assay can be described thus: Test E pre-/postemergence/post directed. To be noted: POSTEMERGENCE
On the set-up: key: 0 is no injury; 100 is complete control. The method in brief: as §1

Assay [12] has as its system common ragweed (Ambrosia elatior). The assay can be described thus: Test E pre-/postemergence/post directed. The note with it: PREEMERGENCE, Rate 32 g/ha. On the set-up: key: 0 is no injury; 100 is complete control. The method in brief:
as §1

For assay [13], the system named is wild buckwheat (Polygonum convolvulus). As to the kind of experiment: Test D. The arrangement: key: 0 is no effect; 100 is complete control. The note with it: PREEMERGENCE, Rate 125 g/ha.
For assay [14], the system named is Italian ryegrass (Lolium multiflorum). As to the kind of experiment: Test D. On the set-up: key: 0 is no effect; 100 is complete control. The note with it: PREEMERGENCE
Assay [15] relates to itchgrass (Rottboellia exaltata). The assay can be described thus: Test E pre-/postemergence/post directed. The note with it: PREEMERGENCE
The arrangement: key: 0 is no effect; 100 is complete control. The gist of the method:
as §1

Data on nine compounds can be found in patent US6525001B1, “Substituted pyrimidine and pyridine herbicides” (Mid-American Commercialization Corporation, priority 1997, dated 2003).

`Cc1cnc(-c2ccc(C(F)(F)F)cc2)nc1Cc1cccc(OC(F)(F)F)c1` [Compound 15]: the “Plant response rating, Barnyardgrass” value in assay [1] (Rate 32 g/ha) and in [1] (Rate 64 g/ha) was 0 each time. The “Plant response rating, Russian thistle” value in assay [2] (Rate 32 g/ha) was determined as 70; in assay [2] (Rate 64 g/ha) it was 90; in [2] (Rate 125 g/ha) it was 95; in [2] (Rate 250 g/ha), 95. The “Plant response rating, Kochia” value in the assay with kochia (Kochia scoparia) (Rate 32 g/ha) amounted to 60; in the assay on kochia (Kochia scoparia) (Rate 64 g/ha), 75; with kochia (Kochia scoparia) (Rate 125 g/ha), 95; in the assay on kochia (Kochia scoparia) (Rate 250 g/ha) it was 100.

Consider `CCc1cnc(-c2ccc(C(F)(F)F)cc2)nc1Cc1cccc(C(F)(F)F)c1` [Compound 22], for which the “Plant response rating, I. Ryegrass” value in assay [3] came out at 0. Also, the “Plant response rating, Russian thistle” value in assay [4] (Rate 62 g/ha) and in assay [4] (Rate 125 g/ha) was 80 in each case. For the same compound, the figures for the “Plant response rating, Downy brome” value in assay [5] and in assay [8] (Rate 125 g/ha) were 0 and 100, respectively. For the same compound, the “Plant response rating, Field violet” value in assay [6] (Rate 62 g/ha) and in assay [6] (Rate 125 g/ha) was 100 in each case. For the same compound, the “Plant response rating, Wild buckwheat” value in assay [7] is reported as 0.

As to `COc1cnc(-c2ccc(C(F)(F)F)cc2)nc1Cc1cccc(C(F)(F)F)c1` [Compound 23], the “Plant response rating, P. morninglory” value in assay [9] (Rate 32 g/ha) and in assay [9] (Rate 64 g/ha) was 0 in each case.

For the compound `Cc1cnc(-n2cnc(C(F)(F)F)c2)nc1Cc1cccc(C(F)(F)F)c1` [Compound 44], the “Plant response rating, Large crabgrass” value in assay [10] is recorded as 0. For the same compound, the “Plant response rating, Bermudagrass” value in [11] (Rate 125 g/ha) and in assay [11] (Rate 250 g/ha) was 0 in each case.

On to `CCc1cnc(-n2ccc(C(F)(F)F)n2)nc1Cc1cccc(C(F)(F)F)c1` [Compound 46], for which, in [12], the “Plant response rating, Com. ragweed” value stood at 0.

For `Cc1cnc(-n2ccc(C(F)(F)F)n2)nc1Cn1ccc(C(F)(F)F)n1` [Compound 52], the “Plant response rating, Wild buckwheat” value in assay [13] was found to be 100.

Take `Cc1cnc(-c2ccc(C(F)(F)F)cc2)nc1Cc1cccc(C(F)(F)F)c1` [Example 1, 5-methyl-2-[4-(trifluoromethyl)phenyl]-4-[[3-(trifluoromethyl)phenyl]methyl]pyrimidine]: the “Plant response rating, Russian thistle” value stood at 40 in assay [4] (Rate 16 g/ha), 60 in [4] (Rate 62 g/ha) and 50 in assay [4] (Rate 125 g/ha). Also, the “Plant response rating, I. Ryegrass” value in assay [14] (Rate 125 g/ha) and in [14] (Rate 250 g/ha) was 100 throughout. The “Plant response rating, Field violet” value in assay [6] (Rate 16 g/ha) is on record as 20; in assay [6] (Rate 31 g/ha) it was 100; in assay [6] (Rate 62 g/ha) it was 100; in [6] (Rate 125 g/ha), 80. The “Plant response rating, Downy brome” value in [8] (Rate 250 g/ha) came out at 100. Also, the “Plant response rating, Kochia” value in the assay on kochia (Kochia scoparia) (Rate 32 g/ha) worked out at 95; with kochia (Kochia scoparia) (Rate 64 g/ha) it was 100; in the assay on kochia (Kochia scoparia) (Rate 125 g/ha) it was 100.

Consider `Cc1cnc(-n2ccc(C(F)(F)F)n2)nc1Cc1cccc(C(F)(F)F)c1` [Example 2, 5-methyl-4-[[3-(trifluoromethyl)phenyl]methyl]-2-[3-(trifluoromethyl)-1H-pyrazol-1-yl]pyrimidine], for which the “Plant response rating, Itchgrass” value in [15] (Rate 500 g/ha) is 100.

Turning to `Cc1cnc(-c2ccc(C(F)(F)F)cc2)nc1Cn1ccc(C(F)(F)F)n1` [compound 9], the “Plant response rating, Itchgrass” value in [15] (Rate 32 g/ha), in assay [15] (Rate 125 g/ha) and in [15] (Rate 250 g/ha) was 100 throughout.
